Data: patent US12551451B2, “Compositions and methods for delivering molecules” (SunVax mRNA Therapeutics Inc., priority 2023, dated 2026)

Legend:
[1] = LNP Characteristics (size, PDI, encapsulation efficiency) of LNPs formulated with novel ionizable lipids; format: physicochemical; details: LNP formulated with the ionizable lipid, DOPE, Cholesterol, DMG-PEG2000
Experimental: LNPs formulated using the novel ionizable lipids of the disclosure or control ionizable lipids MC3 and SM-102 were synthesized by mixing the lipid components of the LNP in ethanol at a predetermined molar ratio (ionizable lipid/DOPE/Cholesterol/DMG-PEG2000=30/15/50/1.5) to prepare an organic phase. Sa-mRNA encoding firefly luciferase (LUC) or green fluorescent protein (GFP) was diluted in 50 mM citrate buffer (pH 4.5, Fisher) to prepare an aqueous phase. The sa-mRNA was stored at −80° C. and was thawed on ice prior to use. The ethanol and aqueous phases were mixed at a 1:3 ratio by pipette with the N/P=4.2/1. The resultant LNPs were purified by ultrafiltration (100,000 cut-off, MilliporeSigma™ Amicon™ Ultra-15 Centrifugal Filter Units) at 4° C. prior to transfection into a cell, such as a T-cell.
LNPs formulated using novel ionizable lipids of the disclosure were synthesized using the procedure described in Example 2 and characterized. Table 4 below show the properties of each LNP formulated using a novel ionizable lipid of the disclosure.

spleen = test: In vivo Luciferase expression after injection of LNP-encapsulated modified mRNA, IVIS imaging; details: LNP delivering 10 mg modified mRNA encoding Luciferase; 18 hours post injection; Balb/c mice
Experimental: (§1) LNP formulated using the ionizable lipids of the disclosure were used to deliver modified RNA encoding reporter genes to determine the transfection efficiency of exemplary ionizable lipids of the disclosure in immune cells and organs. Injections of mice with LNP-encapsulated modified mRNA encoding either Luciferases or eGFP were performed. In experiments with payloads encoding Luciferase mRNA, spleen expression was detected, which is an important organ with abundant pan T cells. In experiments with payloads encoding eGFP mRNA, transfection of primary T cells in vivo by FACS analysis was performed.
Balb/c mice were intraperitoneally injected with 10 mg modified mRNA encoding Luciferase, encapsulated by LNPs formulated with P1D4, P51C12, P161F6 ionizable lipids. To detect luminescence, the mice were subsequently injected with 6 mg Luciferin, a substrate of Luciferase and imaged by IVIS five minutes later.

[2] = system: endogenous CD4, CD8, CD4/CD8 T cells and NK cells; test: In vivo transfection of T and NK cells with LNP-encapsulated modified mRNA encoding eGFP, FACS of splenocytes; parameters: species or system Balb/c mice; details: LNP delivering 10 mg modified mRNA encoding eGFP, intravenously, 18 hours after injection
Experimental: as §1
Balb/c mice were intravenously injected with of 10 mg modified mRNA encoding eGFP. The modified mRNA encoding eGFP were delivered using LNPs formulated with P1D4 and P161F6 ionizable lipids in groups of 5 mice. A control group of 5 mice were injected with PBS. Balb/c mice were injected intravenously. The mice were sacrificed 18 hours after injection. Single cell splenocytes were prepared for FACS staining.

Row | SMILES | Avg. Encapsulation Efficiency (EE) % [1] | Avg. PDI [1] | Avg. Size [1] | transfection of the spleen (Luciferase signal) (spleen) | transfection of endogenous CD4, CD8, CD4/CD8 T cells and NK cells [2]
1 | CCCCCCCCCCCCCC(=O)N(CC(CCCCCCCC)CCCCCCCCCC)C(C(=O)NCC(=O)OCC)C1CCN(CC)CC1 (stereo not shown) [Lipid P1D4, Ethyl (2-(1-ethylpiperidin-4-yl)-2-(N-(2-octyldodecyl)tetradecanamido)acetyl)glycinate] | 92.7% | 0.17 | 170.4 nm | effectively transfected the spleen | could transfect endogenous CD4, CD8, CD4/CD8 T cells as well as NK cell
2 | CCCCCCCCCCCCC(CCCCCCCCCC)CN(C(=O)CCC(C)C1CCC2C3CC(O)C4CC(O)CCC4(C)C3CCC12C)C(C(=O)NC12CC3CC(CC(C3)C1)C2)C1CCN(CC)CC1 (stereo not shown) [Lipid P161F6, N-(2-(((1s,3s)-adamantan-1-yl)amino)-1-(1-ethylpiperidin-4-yl)-2-oxoethyl)-N-(2-decyltetradecyl)-4-(3,6-dihydroxy-10,13-dimethylhexadecahydro-1H-cyclopenta[a]phenanthren-17-yl)pentanamide] | 87.1% | 0.18 | 215 nm | effectively transfected the spleen | could transfect endogenous CD4, CD8, CD4/CD8 T cells as well as NK cell
3 | CCCCCCCCCCC(CCCCCCCC)CN(C(=O)CCC(C)C1CCC2C3CC(O)C4CC(O)CCC4(C)C3CCC12C)C(CC1CCN(C)CC1)C(=O)NC12CC3CC(CC(C3)C1)C2 (stereo not shown) [Lipid P161F10, N-(1-(((1s,3s)-adamantan-1-yl)amino)-3-(1-methylpiperidin-4-yl)-1-oxopropan-2-yl)-4-(3,6-dihydroxy-10,13-dimethylhexadecahydro-1H-cyclopenta[a]phenanthren-17-yl)-N-(2-octyldodecyl)pentanamide] | 87.9% | 0.19 | 225 nm | – | –

The next lines start with results.

Row | Avg. Encapsulation Efficiency (EE) % [1] | Avg. PDI [1] | Avg. Size [1] | SMILES | transfection of the spleen (Luciferase signal) (spleen) | transfection of endogenous CD4, CD8, CD4/CD8 T cells and NK cells [2]
4 | 86.8% | 0.07 | 86.8 nm | CCCCCCCCCCCCOC(=O)CCC(=O)N(C(CCCCCCCCC)CCCCCCCCC)C(C(=O)NC1CCCCCC1)C1CCN(CC)CC1 (stereo not shown) [Lipid P153C3, dodecyl 4-((2-(cycloheptylamino)-1-(1-ethylpiperidin-4-yl)-2-oxoethyl)(nonadecan-10-yl)amino)-4-oxobutanoate] | – | –
5 | 62.0% | 0.14 | 169 nm | CCCCCCCCCCCCOC(=O)CCC(=O)N(C(CCCCCCCCCCC)CCCCCCCCCCC)C(C(=O)NC1CCCCCC1)C1CCN(CC)CC1 (stereo not shown) [Lipid P153C5, dodecyl 4-((2-(cycloheptylamino)-1-(1-ethylpiperidin-4-yl)-2-oxoethyl)(tricosan-12-yl)amino)-4-oxobutanoate] | – | –
6 | 95.8% | 0.13 | 174 nm | CCCCCCCCCCCCOC(=O)CCC(=O)N(CC(CCCCCCCC)CCCCCCCCCC)C(C(=O)NC1CCCCCC1)C1CCCN(CC)C1 (stereo not shown) [Lipid P159C10, dodecyl 4-((2-(cycloheptylamino)-1-(1-ethylpiperidin-3-yl)-2-oxoethyl)(2-octyldodecyl)amino)-4-oxobutanoate] | – | –
